Measurements taken from patent publication US5245035A, “Heterocyclic boron compounds as intermediates for angiotensin II antagonists” (Imperial Chemical Industries PLC, priority 1991, dated 1993).
Where a name gives a salt, the structure may show the parent alone.

How the values were obtained:
[1] = tested on: angiotensin II-induced pressor responses; assay: Test C: in vivo antagonism of angiotensin II-induced pressor responses in terminally-anaesthetised or conscious rats; conditions: Rattus norvegicus, iv, i.v. administration
From the text: The antagonism of one or more of the physiological actions of AII and, in particular, the antagonism of the interaction of AII with the receptors which mediate its effects on a target tissue, may be assessed using one or more of the following, routine laboratory procedures: This in vivo test involves using terminally-anaesthetised or conscious rats in which an arterial catheter has been implanted under anaesthesia for the measurement of changes in blood pressure. The AII antagonistic effects of the test compound following oral or parenteral administration, are assessed against angiotensin II-induced pressor responses. To ensure that the effect is specific, the effect of the test compound on vasopressin-induced pressor responses may also be determined in the same preparation.

[2] = molecular target: T1, AII-induced contractions of isolated rabbit aorta (Oryctolagus cuniculus, UniProt P34976); assay: Test B: in vitro antagonism of AII-induced contractions of isolated rabbit aorta; assay type: cell-based; conditions: 37° C., read-out: average pA2 (converted)
T1 construct: isolated rabbit aorta, maintained in a physiological salt solution; from tissue; host or cells: isolated rabbit aorta
T1 sequence (P34976 1-359): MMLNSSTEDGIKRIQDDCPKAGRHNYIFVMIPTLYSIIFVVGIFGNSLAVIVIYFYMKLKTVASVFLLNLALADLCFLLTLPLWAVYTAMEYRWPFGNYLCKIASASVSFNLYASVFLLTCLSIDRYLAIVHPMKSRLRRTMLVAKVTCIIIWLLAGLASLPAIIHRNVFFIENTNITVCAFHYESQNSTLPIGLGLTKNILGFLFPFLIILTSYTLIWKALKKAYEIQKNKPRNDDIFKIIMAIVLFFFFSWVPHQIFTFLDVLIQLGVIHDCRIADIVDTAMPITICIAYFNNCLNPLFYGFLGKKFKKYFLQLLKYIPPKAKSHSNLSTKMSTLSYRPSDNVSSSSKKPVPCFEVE
Procedure: The antagonism of one or more of the physiological actions of AII and, in particular, the antagonism of the interaction of AII with the receptors which mediate its effects on a target tissue, may be assessed using one or more of the following, routine laboratory procedures: This in vitro test involves the measurement of the antagonistic effects of the test compound against […] contractions of isolated rabbit aorta, maintained in a physiological salt solution at 37° C. In order to ensure that the effect of the compound is specific to antagonism of AII, the effect of the test compound on noradrenaline-induced contractions may also be determined in the same preparation.

| SMILES | ED50 [1] [mg/kg] | Kb [2] [nM] |
| --- | --- | --- |
| Cc1cc(OCc2ccc(-c3ccccc3-c3nnn[nH]3)cc2)c2ccccc2n1.Cl [2-methyl-4-[(2'-(1H-tetrazol-5-yl)biphenyl-4-yl)methoxy]quinoline hydrochloride] | 0.5 | 1.12 |
| Cc1cc(OCc2ccc(-c3ccccc3-c3nnn[nH]3)cc2)c2c(n1)CCCC2 [2-methyl-5,6,7,8-tetrahydro-4-[(2'-(1H-tetrazol-5-yl)methoxy]quinoline hydrochloride] | 0.28 |  |
